This is an account of results in US20070190068A1, “uPAR-binding molecule-drug conjugates and uses thereof” (priority 2005, published 2007).

The experiment has as its system MDA-231 GFP tumors. Kind of experiment: Human breast carcinoma MDA-MB-231 GFP xenograft in nude mice (tumor volume). The experiment is classed as in vivo, BALB/c (nu/nu) mice. Particulars: week 14. The source says:
FIG. 5. Preliminary dose defining study. Effect of anti-human uPAR IgG (Mab 3936), doxorubicin, Mab 3936-Doxorubicin conjugate on xenograft human breast cancer tumor model in nude mice (MDA-231 GFP tumors). Tumor volume (mm^3) from week 8 to week 11 post tumor cell inoculation were compared. Bar graph from left to right: animals received control serum, doxorubicin via intravenous (DOX I.V.), doxorubicin via […] (DOX I.P.), Mab 3936 (3936) or Mab 3936-doxorubicin conjugate (3936+DOX) (2 mg/animal).
FIG. 6. Effect of anti-human uPAR IgG (Mab 3936), doxorubicin, Mab 3936-doxorubicin conjugate on xenograft human breast cancer tumor model in nude mice (MDA-231 GFP tumors). Tumor volume (mm^3) from week 5 to week 15 post tumor cell inoculation were compared. Bar graph from left to right: animals received control serum, doxorubicin via intravenous, Mab 3936, doxorubicin via […], and Mab 3936-doxorubicin conjugate.
FIG. 7. […]
For xenograft studies, 4 to 6 weeks old BALB/c (nu/nu) female mice were obtained from Charles River Inc. The mice weighed an average of 20 grams. […] The tumor mass was measured in two dimensions with calipers, twice a week.
Throughout the course of these studies, all control and experimental mice were monitored for any noticeable side effects. […]
(In general: A xenograft is tissue or cells of one species grown in another, often human tumour cells in immunodeficient mice.)

Structures are written as SMILES.

Regarding `COc1cccc2c1C(=O)c1c(O)c3c(c(O)c1C2=O)C[C@@](O)(C(=O)CO)C[C@@H]3O[C@H]1C[C@H](N)[C@H](O)[C@H](C)O1` [doxorubicin], the tumor volume was found to be 330 mm^3.
